Where “and” joins values, the source holds several entries; their conditions need not be identical. Equal entries are not always repeated.
Key:
[1] = system: SMN protein; assay: SMN protein by Western blot in SMA cells (fibroblasts, lymphoblasts, iPS-derived neural progenitor cells); type: cell-based, human; details: 24 hours to 7 days
Method: Lysates were incubated at 95°C for 5 minutes and cleared at 14,000 RPM for 15 minutes. Cleared lysates were quantified by BCA assay. A total of 5 μg of each lysate was mixed with NuPage LDS sample buffer with […] and loaded and separated on a NuPage 10% Bis-Tris gel. Proteins were transferred to 0.2 micron nitrocellulose using the BioRad Turbo Transfer system.

[2] = system: Renilla luciferase driven by the CMV promoter; assay: Reporter gene assay, CMV-driven Renilla luciferase; type: cell-based; details: 24 hrs
Method: The SMN2 reporter cell line was cultured in high-glucose DMEM supplemented with 10% (v/v) fetal bovine serum (FBS) and 1X Penicillin/Streptomycin. Reporter cells media was supplemented with hygromycin during maintenance. All cells were maintained at 37°C and […]. After seeding in 96-well white tissue culture plates at 25,000 per well, cells were incubated overnight before being exposed to different doses of compounds or DMSO for 24 hrs. The final DMSO concentration was kept constant at 0.1% (v/v). Firefly and renilla luciferase expression were assayed with DualGlo (Promega E2920) and measured on a PHERAstar FS microplate reader (BMG Labtech). Relative light units are normalized to DMSO control and expressed as a percentage.

[3] = system: N2a cells; assay: RNA-Seq (polyA RNA) of N2a neuroblastoma cells; type: cell-based, mouse
Method: Cells were then pelleted and lysed in RLT and the RNA was purified according to the protocol for the Qiagen miRNeasy kit to separate and enrich small RNA and large (>200 nt) fractions separately. […] RNA quality was also validated using qPCR for DcpS responsive genes. RNA fractions were used for cDNA library preparation which was performed using Truseq mRNA v2 reagents or TailorMix miRNA reagents (RS-122-2101 Illumina, San Diego CA, USA and TM302 Seqmatic, Fremont CA, USA). Libraries were run on a Nextseq 500 (Illumina) using a paired-end run (2x75bp) generating ~60 million reads per library for the mRNA-seq and 1x75bp generating ~5 million reads per library for the miRNA-seq. Demultiplexing, alignment, and differential analysis for the mRNA-seq were performed as described below. For the miRNA alignment, briefly the sequences between 16 and 35 nucleotides with average phred score ≥ 30 were retained for analysis. The reads were first mapped to mouse miRNAs using Bowtie without allowing for mismatches. Instead of discarding the remaining reads, we explored the possibilities of RNA editing to include potential isomiRs. These reads were mapped to miRNAs that have at most 1 base mismatch, a substitution at the 5’ or 3’ ends, or have 1 or 2 extra bases at either ends. Although 1 base mismatch would include 1 base substitution/deletion/addition at the ends, we made sure that 1 base mismatch was inside the miRNA and that all categories were mutually exclusive. Reads mapping to protein coding exons and other small RNAs were removed prior to mapping to miRNAs. Reads that uniquely mapped to miRNAs were considered and were profiled as: 1) identical to miRNAs, 2) perfect match to miRNAs but are of shorter length (no more than 5 bases short), 3) mapping to miRNAs with 1 substitution, 1 or 2 extra bases at 3’ and 5’ ends and with those with at most 1 mismatch (occurring inside the sequence and not on ends), 4) mapping to the precursor miRNA. Thus, steps 2–4 constitute “IsomiRs”-alternative forms of the mature miRNAs. We merged the counts of reads identical to a miR and those mapping to isomeric forms as they are found to have identical/very similar functions. The unaligned reads were mapped to the mouse genome and an internally developed database of rRNAs from bacteria, fungi, plant and eukaryotes to detect presence of contaminants. For differential analysis of miRNAs, only those with counts of ≥5 in at least 1/3rd samples (treatment vs control) were considered for analysis. The counts were normalized and analyzed using EdgeR [19] packages in R-Bioconductor. The P-values were corrected by FDR for multiple testing and miRNAs with FDR ≤15% and |FC|>1.5 were considered to be differentially expressed.
The differentially regulated gene lists for both the spinal cord mRNA-seq and the N2a mRNA-seq results with a corrected P-value less than 0.05 were loaded into IPA and analyzed against the Ingenuity Knowledgebase, Ingenuity Expert Information, and with experimentally observed confidence.

[4] = system: Smn protein; assay: Smn protein in mouse tissues by Western blot; type: in vivo; details: 2B/- SMA mice
Source text: At P1, pups were counted.

[5] = system: SMA Δ7 mice; details: SMAΔ7 mice; cited from earlier work
[6] = 1 μM, 24 hours, 18,409 detectable

SMILES: Nc1nc(N)c2c(OCC3CCN(Cc4c(Cl)cccc4Cl)CC3)cccc2n1 [RG3039]
- SMN protein [1]: in no experimental condition tested were we able to detect an increase in SMN protein
- effect on CMV-driven Renilla luciferase activity [2]: strong effect
- differential expression of Smn and DcpS ([3]; 1 μM, 24 hours): neither Smn nor DcpS itself were differentially expressed
- down-regulated genes as share of differentially expressed genes ([3]; 1 μM, 24 hours): 41.7%
- genes changed by less than one Log2 units (2-fold) in either direction ([3]; 1 μM, 24 hours): 1,489 genes
- genes changed by less than one Log2 units (2-fold), share ([3]; 1 μM, 24 hours): 70.9%
- genes changed by more than 2 log2 units (4-fold) in either direction ([3]; 1 μM, 24 hours): 80 genes
- genes changed by more than 2 log2 units (4-fold), share ([3]; 1 μM, 24 hours): 3.8%
- genes down-regulated by compound (P < 0.05) ([3]; 1 μM, 24 hours): 878 genes
- pathways significantly affected (P < 0.05), Ingenuity Pathway Analysis ([3]; 1 μM, 24 hours): 53 pathways
- proportion of detectable genes affected ([3]; 1 μM, 24 hours): > 11% and 11.4%
- upregulated genes as share of differentially expressed genes ([3]; 1 μM, 24 hours): 58.3%
- down-regulated genes as percentage of total detectable genes [3, 6]: 4.77%
- upregulated genes as percentage of total detectable genes [3, 6]: 6.66%
- genes differentially expressed compared to DMSO (P < 0.05) ([3]; 1 μM, 24 hours, 18,409 detectable genes): 2,104 genes
- log2(fold-change), gene 1600020E01Rik ([3]; RG3039 vs DMSO, adjusted p-value 1.05E-117): 2.871
- log2(fold-change), gene Krcc1 ([3]; RG3039 vs DMSO, adjusted p-value 1.14E-85): -2.734
- log2(fold-change), gene Apba1 ([3]; RG3039 vs DMSO, adjusted p-value 1.54E-112): -5.025
- log2(fold-change), gene Rnf157 ([3]; RG3039 vs DMSO, adjusted p-value 3.09E-99): -3.057
- log2(fold-change), gene Stra6 ([3]; RG3039 vs DMSO, adjusted p-value 4.32E-66): -2.291
- Paqr8 log2 fold change ([3]; decreased, P = 0.00251): 0.657
- Dpm3 log2 fold change ([3]; increased, P = 0.000012): 0.884
- Pigw log2 fold change ([3]; increased, P = 1.89 x 10^−30): 1.54
- Smn protein levels in muscle [4]: no statistically significant change
- Smn protein levels in spinal cord [4]: no statistically significant change
- SMN protein or snRNP assembly [5]: no detectable change
- full length and Δ7 SMN transcripts [5]: modest but statistically significant elevations

— PMC5612656, “In vitro and in vivo effects of 2,4 diaminoquinazoline inhibitors of the decapping scavenger enzyme DcpS: Context-specific modulation of SMN transcript levels” (PLoS ONE, 2017)
